Source: US7829331B2, “Use of urea-adjuvated polypeptides for diagnosis, prophylaxis and treatment” (priority 2002, dated 2010)

How the values were obtained:
PBMC [1] = assay: Influence of urea on the vitality of PBMC (Trypan blue counting); format: cell-based
Method: In order to test the influence of urea on the cell vitality, PBMC, as described in Example 2, were purified from the heparinised whole blood of 3 healthy donors ([…]) and respectively 1×10^6 cells in four replicates in T-cell medium (RPMI 1640 with 5% human serum, 2 mM glutamine and 100 U/ml penicillin/100 μg/ml streptomycin (all components from PanSystems, Aidenbach)) was mixed with increasing concentrations of urea (0, 0.05, 0.1, 0.2, 0.3, 0.4, 0.8 or 1.6 mol/liter) and incubated in wells of a 48-well microtitre plate for 17 hours in an incubator with humidified atmosphere and 5% CO2 gassing at 37° C. An 8M urea stock solution which was mixed with 2M NaCl and 2 mM DTE was used for these experiments. The cells were then resuspended in the cultivation formulation by repeatedly pipetting the medium on and off and the total number of cells and the ratio of the living to dead cells was determined using a Neubauer “improved” counting chamber after staining with a Trypan blue solution (0.5% w/v).

PBMC [2] = assay: IFN-γ ELIspot of PBMC incubated with urea; format: cell-based, human; details: 24 hours; for IFN-γ secretion from PBMCs: donor one
Method: Furthermore, it should be clarified by ELIspot analyses whether urea in populations of purified PBMCs triggers the secretion of cytokines, especially IFN-γ. For this purpose, 96-well nitrocellulose-coated microtitre plates, as described in detail in Example 2, were coated with a monoclonal anti-human IFN-γ antibody (Hölzl, Cologne) (5 μg/ml in PBS) and incubated overnight at 4° C. The antibody solution was pipetted off and the plates were washed four times using 200 μl PBS/formulation in each case. In a following step non-specific binding sites were blocked by adding 200 μl of blocking medium in each case (RPMI with 10% FCS) during a one-hour incubation at 37° C.
PBMC of a healthy donor ([…]) were taken up in a concentration of respectively 2×10^5 purified PBMC/150 μL in T-cell medium containing different urea concentrations (0, 0.05, 0.1, 0.2, 0.3, 0.4, 0.8, and 1.6 mol/liter) (5 replicates each) and the stimulation formulations were incubated for 24 hours in an incubator with a humidified atmosphere with 5% CO2 gassing at 37° C. An 8M urea stock solution which was mixed with 2M NaCl and 2 mM DTE was used for these experiments. The cell suspension was then drawn off and any cells still adhering were removed by washing six times (in each case 200 μl PBS with 0.1% Tween 20, 3 min incubation with washing buffer in each case). The secondary biotinylated antibody (1 μg/ml in PBS, 100 μl/formulation in each case) was then added; the plates were incubated for 2 hours at RT, then washed (6 times, 200 μl PBS/formulation in each case) and incubated for 1 hour with a streptavidin alkaline phosphatase (AP) conjugate (1 μg/ml in PBS; 100 μl/formulation in each case; Hölzl, Cologne). After a last washing step (6 times 200 μl PBS/formulation in each case), the colour reaction took place by adding the enzyme substrate NBT/BCIP (Boehringer, Mannheim). For this purpose a staining solution was prepared [200 μl NBT/BCIP-stock solution to 10 ml staining buffer (0.1 M tris-buffer, pH 9.5 with 0.05 M MgCl2, 0.1 M NaCl)] and 100 μl/formulation was used in each case.
After 10 min the calorimetric reaction was stopped by washing the plates with deionised water (Biosys 2000, BioSys, Karben).

rabbit = assay: Immunisation of a rabbit with urea-adjuvated BZLF1 polypeptide, serum tested in the immunoblot; format: in vivo; details: intramuscular, 8M urea
Method: In order to test the suitability of urea-adjuvated BZLF-1 polypeptide, 30 μg of BZLF1 polypeptide in 8M urea was adjuvated with Hunters Titermax as specified by the manufacturer (Sigma) and administered intramuscularly to a rabbit. The animal was re-immunised with the same immunogen 4 and 8 week as after the basic immunisation. After a further 3 weeks, blood was taken from the animal and the serum obtained therefrom was tested in different dilutions (1:2000; 1:10000 and 1:50000) in the immunoblot for the presence of BZLF1 specific antibodies. For this purpose BZLF1 polypeptide produced recombinantly in E. coli in various concentrations (20 ng, 100 ng and 500 ng) was separated in a 12.5% SDS gel and the proteins were then transferred onto nitrocellulose. After the protein transfer the still-free protein binding sites on the nitrocellulose were saturated by incubating with a 5% solution of skimmed milk powder in TBS (500 mM NaCl, 25 mM Tris pH 7.5), shaking slightly. The Blot was then washed four times with TTBS for at least 10 min before it was incubated for 1 to 12 hours with the corresponding dilution of the rabbit serum in TBS. […]

How did the “number of dead cells” value (PBMC [1]) turn out when `NC(N)=O` [urea] was run?
Its value is “significantly increased number of dead cells”.

And the Living/dead (PBMC [1]; donor one, urea 0.05 mol/liter, 17 hours)?
The Living/dead was 2.2.

What about the Living/dead (PBMC [1]; donor one, urea 0.1 mol/liter, 17 hours) of the same compound?
Its Living/dead is 55.

And the Living/dead (PBMC [1]; donor one, urea 0.2 mol/liter, 17 hours)?
The Living/dead was 3.6.

And the Living/dead (PBMC [1]; donor one, urea 0.3 mol/liter, 17 hours)?
Its Living/dead is 1.8.

And the Living/dead (PBMC [1]; donor one, urea 0.4 mol/liter, 17 hours)?
The Living/dead was 0.2.

And the Living/dead (PBMC [1]; donor one, urea 0.8 mol/liter, 17 hours)?
Its Living/dead is 0.04.

And the Living/dead (PBMC [1]; donor one, urea 1.6 mol/liter, 17 hours, 0 = exclusively dead cells)?
The Living/dead was 0.

What about the Living/dead (PBMC [1]; donor three, urea 0.05 mol/liter, 17 hours) of the same compound?
Its Living/dead is 11.7.

And the Living/dead (PBMC [1]; donor three, urea 0.1 mol/liter, 17 hours)?
The Living/dead was 41.3.

And the Living/dead (PBMC [1]; donor three, urea 0.2 mol/liter, 17 hours)?
Its Living/dead is 30.2.

And the Living/dead (PBMC [1]; donor three, urea 0.3 mol/liter, 17 hours)?
Its Living/dead is 9.

And the Living/dead (PBMC [1]; donor three, urea 0.4 mol/liter, 17 hours)?
The Living/dead was 0.2.

And the Living/dead (PBMC [1]; donor three, urea 0.8 mol/liter, 17 hours)?
Its Living/dead is 0.02.

And the Living/dead (PBMC [1]; donor three, urea 1.6 mol/liter, 17 hours, 0 = exclusively dead cells)?
Its Living/dead is 0.

What about the Living/dead (PBMC [1]; donor two, urea 0.05 mol/liter, 17 hours) of the same compound?
Its Living/dead is 15.9.

What about the Living/dead (PBMC [1]; donor two, urea 0.1 mol/liter, 17 hours) of the same compound?
The Living/dead was 1.7.

And the Living/dead (PBMC [1]; donor two, urea 0.2 mol/liter, 17 hours)?
Its Living/dead is 6.6.

And the Living/dead (PBMC [1]; donor two, urea 0.4 mol/liter, 17 hours)?
Its Living/dead is 1.

What about the Living/dead (PBMC [1]; donor two, urea 0.8 mol/liter, 17 hours) of the same compound?
The Living/dead was 0.1.

What about the Living/dead (PBMC [1]; donor two, urea 1.6 mol/liter, 17 hours) of the same compound?
Its Living/dead is 0.06.

And the “dead versus living cells in the PBMC cultures” value (PBMC [1]; from a urea concentration of 0.4 mol/liter, 17 hours, regardless of the donor)?
The value was “more dead than living cells”.

What about the “ratio of living to dead cells compared to the untreated cells” value (PBMC [1]; urea 0 to 0.2 mol/liter, 17 hours) of the same compound?
The value was “no significant reduction”.

What about the “total number of cells (cytolytic effect)” value (PBMC [1]; urea concentrations above 0.3 mol/liter, 17 hours) of the same compound?
Its value is “significant reduction in the total number of cells”.

What about the “IFN-γ secretion from PBMCs” value (PBMC [2]; urea 0.05 mol/liter) of the same compound?
Its value is 26.2 Spots/2 × 10^6 cells.

And the “IFN-γ secretion from PBMCs” value (PBMC [2]; urea 0.1 mol/liter)?
The value was 29.6 Spots/2 × 10^6 cells.

What about the “IFN-γ secretion from PBMCs” value (PBMC [2]; urea 0.2 mol/liter) of the same compound?
Its value is 26.4 Spots/2 × 10^6 cells.

And the “IFN-γ secretion from PBMCs” value (PBMC [2]; urea 0.3 mol/liter)?
The value was 11.0 Spots/2 × 10^6 cells.

What about the “IFN-γ secretion from PBMCs” value (PBMC [2]; urea 0.4 mol/liter) of the same compound?
The value was 18.2 Spots/2 × 10^6 cells.

And the “IFN-γ secretion from PBMCs” value (PBMC [2]; urea 0.8 mol/liter)?
Its value is 14.6 Spots/2 × 10^6 cells.

What about the “IFN-γ secretion from PBMCs” value (PBMC [2]; urea 1.6 mol/liter) of the same compound?
The value was 13.4 Spots/2 × 10^6 cells.

And the “release of IFN-γ from cultures of peripheral blood mononuclear cells” value (PBMC [2]; urea 0.05 to 1.6 mol/liter)?
The value was “no significantly increased release of IFN-γ”.

What about the “toxicity of the urea contained in the injection solution for the experimental animal” value (rabbit) of the same compound?
The value was “non-toxic”.
